# Assay results taken from patent publication US6825227B2, “Method for fighting against arthropods destructive of crops and compositions therefor” (priority 2000, dated 2004).
# Experiments:
# Assay type in all cases: in vivo
# Nephotettix apicalis [1] = assay: Process Example B: insecticidal treatment of a rice crop against leafhoppers; details: applied 25 days after planting out, 14 days after application
# Description: This process example gives an illustration of a process according to the invention which is useful for insecticidal treatment against leafhoppers and in particular against Nephotettix apicalis.
# This process according to the invention was carried out for the treatment of a rice crop.
# (§1) The operating conditions were reproduced and adapted from those of Process Example A.
# The active materials used were fipronil and deltamethrin in a formulation in the form of granules according to Composition Example A.
# (§2) The active material(s) was(were) applied to the plots 25 days after planting out.
# (§3) The rates of active materials applied and the results obtained 14 days after application are collated in Table 2.
# Nephotettix apicalis [2] = assay: Process Example G: variation in number of Nephotettix apicalis after treatment
# Text: This process example gives an illustration of a process according to the invention which is useful for insecticidal treatment against Nephotettix apicalis. The operating and measuring conditions are reproduced and adapted from Process Example B.
# The active materials used, their application rates and the results obtained are collated in Table 7.
# Nilaparvata lugens [3] = assay: Process Example E: variation in number of Nilaparvata lugens after treatment
# Text: (§4) This process example gives an illustration of a process according to the invention which is useful for insecticidal treatment against Nilaparvata lugens.
# (§5) The operating and measuring conditions are reproduced and adapted from Process Example B.
# The active materials used, their application rates and the results obtained are collated in Table 5.
# Tryporyza incertulas [4] = assay: Process Example A: treatment of rice plots against yellow rice stem borer, count of dead plant cores; details: applied 7 days after planting out
# Description: The treatment process carried out was a treatment process against yellow rice stem borer or Tryporyza incertulas during the infestation of a rice crop. For the comparison of the process according to the invention with known insecticidal treatment processes, four plots were prepared in a similar manner.
# The first is left without treatment, the second is treated with fipronil as active material, the third with deltamethrin and the fourth with fipronil and deltamethrin in accordance with the process according to the invention.
# After sowing and then growing, the rice seedlings are transplanted at the three- to four-leaf stage.
# The various active materials were then applied 7 days after planting out.
# The formulation used in this process according to the invention is identical to that of Composition Example A.
# The application rates and the results obtained are collated in Table 1.
# (§6) The measurement was carried out by counting the number of rice plant cores that were dead due to attack by the damaging insects treated, i.e. Tryporyza incertulas; thus, the smallest number is obtained after carrying out the process according to the invention, while the untreated plots or plots treated in a known manner give substantially larger numbers.
# Nilaparvata lugens [5] = assay: Process Example F: variation in number of Nilaparvata lugens after treatment
# Text: as §4, §5
# The active materials used, their application rates and the results obtained are collated in Table 6.
# Nilaparvata lugens [6] = assay: Process Example C: insecticidal treatment against Nilaparvata lugens
# Text: as §1, §2, §3
# This process example gives an illustration of a process according to the invention which is useful for insecticidal treatment against Nilaparvata lugens. The operating and measuring conditions are reproduced and adapted from Process Example B.
# The application rates and the results are collated in Table 3.
# rice crop = assay: Process Example D: yield of a rice crop with control of the insects which ravage it; details: versus plot without treatment
# Description: This process example according to the invention gives an illustration of the improvement in the yield of a rice crop obtained concomitantly with the control of the insects which ravage this rice crop.
# In this treatment Process Example according to the invention, the yield of the crop was evaluated, along with the improvement in this yield obtained by carrying out the said process according to the invention simultaneously using fipronil as compound (A) and cypermethrin as compound (B).
# as §5
# The application rates and the results are collated in Table 4.
# Tryporyza incertulas [7] = assay: Process Example J: treatment of a rice crop against yellow rice stem borer, variation in dead plant cores; details: fipronil 25 g/ha
# Description: The treatment process used was a process of treatment against yellow rice stem borer or Tryporyza incertulas during the infestation of a rice crop.
# as §5
# The active materials used, their application rates and the results obtained are collated in Table 10.
# as §6, with “greatest degree of reduction” for “smallest number”, “whereas” for “while”, “more mediocre degrees.” for “larger numbers.”
# Scotinophara lurida = assay: Process Example K: treatment of a rice crop against Scotinophara lurida; details: fipronil 25 g/ha
# Text: The treatment process used was a process of treatment against Scotinophara lurida during the infestation of a rice crop.
# as §5
# The active materials used, their application rates and the results obtained are collated in Table 11.
# Nilaparvata lugens [8] = assay: Process Example I: variation in number of Nilaparvata lugens after treatment; details: fipronil 25 g/ha
# Text: as §4, §5
# The active materials used, their application rates and the results obtained are collated in Table 9.
# Nilaparvata lugens [9] = assay: Process Example H: variation in number of Nilaparvata lugens after treatment; details: fipronil 25 g/ha
# Text: as §4, §5
# The active materials used, their application rates and the results obtained are collated in Table 8.
smiles,measurement,setting,value
"CC1(C)[C@H](C(=O)O[C@H](C#N)c2cccc(Oc3ccccc3)c2)[C@@H]1C=C(Br)Br [deltamethrin, (S)-α-cyano-3-phenoxybenzyl (1R,3R)-3-(2,2-dibromovinyl)-2,2-dimethylcyclopropanecarboxylate]",Insecticidal efficacy,Nephotettix apicalis [1]; deltamethrin 6 g/ha,6%
same,Degree of variation in the number of damaging insects 1 day after application,Nephotettix apicalis [2]; deltamethrin 6 g/ha,−13%
same,Degree of variation in the number of damaging insects 3 days after application,Nephotettix apicalis [2]; deltamethrin 6 g/ha,+25%
same,Degree of variation in the number of damaging insects 7 days after application,Nephotettix apicalis [2]; deltamethrin 6 g/ha,+75%
same,Degree of variation in the number of damaging insects 3 days after application,Nilaparvata lugens [3]; deltamethrin 6 g/ha,+27%
same,Degree of variation in the number of damaging insects 7 days after application,Nilaparvata lugens [3]; deltamethrin 6 g/ha,0%
same,Proportion of dead plant cores found,Tryporyza incertulas [4]; deltamethrin 6 g/ha,66%
"CC1(C)C(C=C(Cl)Cl)C1C(=O)OC(C#N)c1cccc(Oc2ccccc2)c1 [cypermethrin, (R,S)-α-cyano-3-phenoxybenzyl (1RS,3RS;1RS,3SR)-3-(2,2-dichlorovinyl)-2,2-dimethylcyclopropanecarboxylate]",Degree of variation in the number of damaging insects 3 days after application,Nilaparvata lugens [5]; cypermethrin 12.5 g/ha,−27%
same,Degree of variation in the number of damaging insects 7 days after application,Nilaparvata lugens [5]; cypermethrin 12.5 g/ha,+13%
same,Insecticidal efficacy,Nilaparvata lugens [6]; cypermethrin 12.5 g/ha,21%
same,Improvement in the yield of the plot (%),rice crop; cypermethrin 12.5 g/ha,78%
"N#Cc1nn(-c2c(Cl)cc(C(F)(F)F)cc2Cl)c(N)c1[S+]([O-])C(F)(F)F (stereo not shown) [fipronil, 5-amino-3-cyano-1-(2,6-dichloro-4-trifluoromethylphenyl)-4-trifluoromethylsulphinylpyrazole]",Insecticidal efficacy,Nephotettix apicalis [1]; fipronil 25 g/ha,16%
same,Degree of variation in the number of damaging insects 1 day after application,Nephotettix apicalis [2]; fipronil 25 g/ha,+50%
same,Degree of variation in the number of damaging insects 3 days after application,Nephotettix apicalis [2]; fipronil 25 g/ha,+83%
same,Degree of variation in the number of damaging insects 7 days after application,Nephotettix apicalis [2]; fipronil 25 g/ha,+183%
same,Degree of variation in the number of damaging insects 3 days after application,Nilaparvata lugens [3]; fipronil 25 g/ha,+33%
same,Degree of variation in the number of damaging insects 7 days after application,Nilaparvata lugens [3]; fipronil 25 g/ha,+11%
same,Degree of variation in the number of dead plant cores,Tryporyza incertulas [7],−35%
same,Proportion of dead plant cores found,Tryporyza incertulas [4]; fipronil 10 g/ha,56%
same,Degree of variation in the number of damaging insects 3 days after application,Nilaparvata lugens [5]; fipronil 25 g/ha,+33%
same,Degree of variation in the number of damaging insects 7 days after application,Nilaparvata lugens [5]; fipronil 25 g/ha,+11%
same,Degree of variation in the number of damaging insects 1 day after treatment,Scotinophara lurida; 1 day,−43%
same,Degree of variation in the number of damaging insects 3 days after treatment,Scotinophara lurida; 3 days,−67%
same,Degree of variation in the number of damaging insects 14 days after treatment,Scotinophara lurida; 14 days,−45%
same,Insecticidal efficacy,Nilaparvata lugens [6]; fipronil 10 g/ha,78%
same,Improvement in the yield of the plot (%),rice crop; fipronil 10 g/ha,188%
same,Degree of variation in the number of damaging insects 7 days after application,Nilaparvata lugens [8],+19%
same,Degree of variation in the number of damaging insects 1 day after application,Nilaparvata lugens [9]; 1 day,−15%
same,Degree of variation in the number of damaging insects 3 days after application,Nilaparvata lugens [9]; 3 days,−8%
same,Degree of variation in the number of damaging insects 7 days after application,Nilaparvata lugens [9]; 7 days,−16%
same,Degree of variation in the number of damaging insects 14 days after application,Nilaparvata lugens [9]; 14 days,+40%
